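Grown in 96-well plates, cells were treated for 48 hours with each compound at five concentrations. Insufficient inhibition: endpoint recorded as highest concentration tested. The concentration for 50% growth inhibition is given as GI50.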 Calls of active or inactive are those of the source. Cut-off read from the data, not from the text of the source: active = GI50 up to about 1.1 µM and inactive = higher.
Experiments:
Test in all cases: growth of human tumour cells (NCI), 48 h
[1] = test system: A549
[2] = test system: KM12
[3] = test system: OVCAR-5
[4] = test system: NCI-H522
[5] = test system: SW-620
[6] = test system: NCI-H460
[7] = test system: RXF 393
[8] = test system: OVCAR-8
[9] = test system: OVCAR-3
[10] = test system: HOP-62
[11] = test system: MOLT-4
[12] = test system: HCT-116
[13] = test system: HOP-92
[14] = test system: SK-MEL-2
[15] = test system: ACHN
[16] = test system: OVCAR-4
[17] = test system: SNB-75
[18] = test system: SNB-19
[19] = test system: UACC-62
[20] = test system: SN12C

Measured: GI50

CCCCCCCCCCCC(=O)C1=C(O)CCC(O)C1=O (stereo not given)
inactive: [1] 29.9 µM | [2] 17.9 µM | [3] 27.7 µM | [4] 12.1 µM | [5] 13.2 µM | [6] 15.7 µM | [7] 35.1 µM | [8] 10.1 µM | [9] 10.8 µM | [10] 15.2 µM | [11] 17.9 µM | [12] 21.3 µM | [13] 17.7 µM | [14] 11.9 µM | [15] 19.4 µM | [16] 18.5 µM | [17] 21.6 µM | [18] 9.08 µM | [19] 10.8 µM | [20] 21.8 µM

Fc1cccc(C2ON=C(c3ccccc3)N2C23CC4CC(CC(C4)C2)C3)c1 (stereo not given)
inactive: [1] > 10 µM | [2] > 10 µM | [3] > 10 µM | [4] > 10 µM | [5] > 10 µM | [6] > 10 µM | [7] > 10 µM | [8] > 10 µM | [9] > 10 µM | [10] > 10 µM | [11] > 10 µM | [12] > 10 µM | [13] > 10 µM | [14] > 10 µM | [15] > 10 µM | [16] > 10 µM | [17] > 10 µM | [18] > 10 µM | [19] > 10 µM | [20] > 10 µM

CC(C)C1(O)C(=O)N(c2c(F)c(F)c(F)c(F)c2F)C(=S)N1CCSc1ccccc1 (stereo not given)
inactive: [1] 15.3 µM | [2] 17.1 µM | [3] 18.7 µM | [4] 16.6 µM | [5] 16.6 µM | [6] 19.2 µM | [7] 17.3 µM | [8] 19 µM | [9] 16.4 µM | [10] 18.5 µM | [11] 15.1 µM | [12] 18.2 µM | [13] 9.53 µM | [14] 17.7 µM | [15] 17.5 µM | [16] 15.2 µM | [17] 16.7 µM | [18] 17.8 µM | [19] 15.8 µM | [20] 15.3 µM

COC(=O)C1OC2(CCCC3CC32)O[C@H]1C(=O)OC (stereo not given in full)
inactive: [1] > 100 µM | [2] > 100 µM | [3] > 100 µM | [4] > 100 µM | [5] > 100 µM | [6] 90.4 µM | [7] > 100 µM | [8] > 100 µM | [9] > 100 µM | [10] > 100 µM | [11] > 100 µM | [12] > 100 µM | [13] 68.7 µM | [14] > 100 µM | [15] > 100 µM | [16] > 100 µM | [17] > 100 µM | [18] > 100 µM | [19] > 100 µM | [20] > 100 µM

CC(C)(C)OC(=O)NC(CSSCC(NC(=O)OC(C)(C)C)C(=O)O)C(=O)O (stereo not given)
inactive: [1] > 100 µM | [2] > 100 µM | [3] > 100 µM | [4] > 100 µM | [5] > 100 µM | [6] > 100 µM | [7] > 100 µM | [8] > 100 µM | [9] > 100 µM | [10] > 100 µM | [11] > 100 µM | [12] > 100 µM | [13] > 100 µM | [14] > 100 µM | [15] > 100 µM | [16] > 100 µM | [17] > 100 µM | [18] > 100 µM | [19] > 100 µM | [20] > 100 µM

COC(CC1(/C=C/O[Si](C(C)C)(C(C)C)C(C)C)C(=O)N(COCC[Si](C)(C)C)c2ccccc21)OC (stereo not given)
inactive: [1] 36.3 µM | [2] 36.1 µM | [3] 37.4 µM | [4] 6.75 µM | [5] 37.2 µM | [6] 23.1 µM | [7] 3.9 µM | [8] > 100 µM | [9] 13.1 µM | [10] 66.8 µM | [11] 22.1 µM | [12] 16.1 µM | [13] 9.48 µM | [14] 13.3 µM | [15] 26.6 µM | [16] 20.8 µM | [17] 81.8 µM | [18] 33.7 µM | [19] 18.8 µM | [20] 45.1 µM

O=C(Nc1ccn(C2CC(O)C(COC(c3ccccc3)(c3ccccc3)c3ccccc3)O2)c(=O)n1)c1ccccc1 (stereo not given)
inactive: [1] 4.54 µM | [2] 4.35 µM | [3] 1.87 µM | [4] 3.6 µM | [5] 2.58 µM | [6] 2.03 µM | [7] 2.7 µM | [8] 1.97 µM | [9] 2.03 µM | [10] 5.62 µM | [11] 2.16 µM | [12] 2 µM | [13] 1.57 µM | [14] 2.82 µM | [15] 3.35 µM | [16] 3.24 µM | [17] 4.66 µM | [18] 3.77 µM | [19] 5.98 µM | [20] 1.89 µM

COc1ccc(C(=O)/C=C/S/C(=N/C#N)SC)cc1
inactive: [1] > 100 µM | [2] 25.9 µM | [3] 24 µM | [4] 18.2 µM | [5] 16.8 µM | [6] > 100 µM | [7] 18.2 µM | [8] 21 µM | [9] 16.4 µM | [10] 24.3 µM | [11] 5.77 µM | [12] 14.9 µM | [13] 65.5 µM | [14] 20.5 µM | [15] 20.4 µM | [16] 58.9 µM | [17] 27.9 µM | [18] 19.5 µM | [19] 20 µM | [20] 24.4 µM

Cc1ccc(/C=C2\Cc3c(C)cc(C)cc3C2=O)c(C(=O)O)c1
inactive: [1] 49.9 µM | [2] 46.3 µM | [3] 33.2 µM | [4] 78.9 µM | [5] 47.4 µM | [6] 48.2 µM | [7] 39.9 µM | [8] 51.8 µM | [9] 31 µM | [10] 83.4 µM | [11] 35.5 µM | [12] 49.4 µM | [13] 36.1 µM | [14] 24.4 µM | [15] 59.6 µM | [16] 34.7 µM | [17] 58.9 µM | [18] 44.5 µM | [19] 41.1 µM | [20] 67.5 µM

COC(=O)c1s/c(=N\C(=S)N(C)C)n(-c2ccccc2)c1C(=O)OC
inactive: [1] > 100 µM | [2] > 100 µM | [3] > 100 µM | [4] > 100 µM | [5] > 100 µM | [6] > 100 µM | [7] > 100 µM | [8] > 100 µM | [9] > 100 µM | [10] > 100 µM | [11] 66.8 µM | [12] > 100 µM | [13] > 100 µM | [14] > 100 µM | [15] > 100 µM | [16] 94 µM | [17] 52.2 µM | [18] > 100 µM | [19] > 100 µM | [20] > 100 µM

— ChEMBL document CHEMBL1201862, “PubChem BioAssay data set” (2004)
